In brackets after ≈: the same amount, converted by molar mass.
Tests used:
Parameters in all cases: agar dilution MIC, growth inhibition of clinical Burkholderia isolates
[1] = test system: T1, B. cenocepacia AU10321; assay: microbe, parasite or virus in culture; conditions: Burkholderia cenocepacia, AU10321
T1 construct: AU10321
Outline: (§1)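 MICs by agar dilution against Bcc and B. gladioli clinical isolates, interpreted with CLSI breakpoints where available; K. pneumoniae ATCC 700603 (SHV-18) and ATCC BAA-1705 (KPC) served as quality controls.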

[2] = test system: T2, B. vietnamiensis AU30387; assay: microbe, parasite or virus in culture; conditions: Burkholderia vietnamiensis, AU30387
T2 construct: AU30387
Outline: as §1

[3] = test system: T3, B. multivorans AU17135; assay: microbe, parasite or virus in culture; conditions: Burkholderia multivorans, AU17135
T3 construct: AU17135
Outline: as §1

[4] = test system: T4, B. multivorans AU11772; assay: microbe, parasite or virus in culture; conditions: Burkholderia multivorans, AU11772
T4 construct: AU11772
Outline: as §1

[5] = test system: T5, B. cepacia AU19265; assay: microbe, parasite or virus in culture; conditions: Burkholderia cepacia, AU19265
T5 construct: AU19265
Outline: as §1

[6] = test system: T6, B. multivorans AU19659; assay: microbe, parasite or virus in culture; conditions: Burkholderia multivorans, AU19659
T6 construct: AU19659
Outline: as §1

[7] = test system: T7, B. cepacia AU13354; assay: microbe, parasite or virus in culture; conditions: Burkholderia cepacia, AU13354
T7 construct: AU13354
Outline: as §1

[8] = test system: T8, Burkholderia cepacia complex Bcc Indeterminate AU18117; assay: microbe, parasite or virus in culture; conditions: Burkholderia cepacia
T8 construct: AU18117
Outline: as §1

[9] = test system: T9, B. multivorans AU11233; assay: microbe, parasite or virus in culture; conditions: Burkholderia multivorans, AU11233
T9 construct: AU11233
Outline: as §1

[10] = test system: T10, B. cenocepacia AU9215; assay: microbe, parasite or virus in culture; conditions: Burkholderia cenocepacia, AU9215
T10 construct: AU9215
Outline: as §1

[11] = test system: T11, B. cenocepacia AU22509; assay: microbe, parasite or virus in culture; conditions: Burkholderia cenocepacia, AU22509
T11 construct: AU22509
Outline: as §1

[12] = test system: T12, B. gladioli AU30473; assay: organism not typed
T12 construct: AU30473
Outline: as §1

[13] = test system: T13, Burkholderia cepacia complex Bcc Indeterminate AU14915; assay: microbe, parasite or virus in culture; conditions: Burkholderia cepacia
T13 construct: AU14915
Outline: as §1

[14] = test system: T14, B. cenocepacia AU141094; assay: microbe, parasite or virus in culture; conditions: Burkholderia cenocepacia, AU141094
T14 construct: AU141094
Outline: as §1

[15] = test system: T15, B. gladioli AU16341; assay: organism not typed
T15 construct: AU16341
Outline: as §1

[16] = test system: T16, B. contaminans AU15669; assay: organism not typed
T16 construct: AU15669
Outline: as §1

[17] = test system: T17, B. multivorans AU20929; assay: microbe, parasite or virus in culture; conditions: Burkholderia multivorans, AU20929
T17 construct: AU20929
Outline: as §1

[18] = test system: T18, B. multivorans AU28442; assay: microbe, parasite or virus in culture; conditions: Burkholderia multivorans, AU28442
T18 construct: AU28442
Outline: as §1

[19] = test system: T19, B. gladioli AU27927; assay: organism not typed
T19 construct: AU27927
Outline: as §1

[20] = test system: T20, B. cenocepacia AU20146; assay: microbe, parasite or virus in culture; conditions: Burkholderia cenocepacia, AU20146
T20 construct: AU20146
Outline: as §1

[21] = test system: T21, B. multivorans AU17545; assay: microbe, parasite or virus in culture; conditions: Burkholderia multivorans, AU17545
T21 construct: AU17545
Outline: as §1

[22] = test system: T22, B. cepacia AU27816; assay: microbe, parasite or virus in culture; conditions: Burkholderia cepacia, AU27816
T22 construct: AU27816
Outline: as §1

| Compound | MIC [1] | MIC [2] | MIC [3] | MIC [4] | MIC [5] | MIC [6] | MIC [7] | MIC [8] | MIC [9] | MIC [10] | MIC [11] | MIC [12] | MIC [13] | MIC [14] | MIC [15] | MIC [16] | MIC [17] | MIC [18] | MIC [19] | MIC [20] | other results |
| --- | --- | --- | --- | --- | --- | --- | --- | --- | --- | --- | --- | --- | --- | --- | --- | --- | --- | --- | --- | --- | --- |
| CO/N=C(\C(=O)N[C@@H]1C(=O)N2C(C(=O)[O-])=C(C[N+]3(C)CCCC3)CS[C@H]12)c1csc(N)n1 [cefepime] | > 32 µg/mL | 2 µg/mL (≈ 4.16 µM) | 4 µg/mL (≈ 8.32 µM) | > 32 µg/mL | 32 µg/mL (≈ 66.6 µM) | > 32 µg/mL | > 32 µg/mL | > 32 µg/mL | > 32 µg/mL | > 32 µg/mL | > 32 µg/mL | 32 µg/mL (≈ 66.6 µM) | > 32 µg/mL | > 32 µg/mL | > 32 µg/mL | > 32 µg/mL | 8 µg/mL (≈ 16.6 µM) | > 32 µg/mL | 8 µg/mL (≈ 16.6 µM) | 16 µg/mL (≈ 33.3 µM) | MIC [21]: 16 µg/mL (≈ 33.3 µM); MIC [22]: 16 µg/mL (≈ 33.3 µM) |
| C[C@H]1COc2c(N3CCN(C)CC3)c(F)cc3c(=O)c(C(=O)O)cn1c23 [levofloxacin] | > 32 µg/mL | 2 µg/mL (≈ 5.53 µM) | 2 µg/mL (≈ 5.53 µM) | 8 µg/mL (≈ 22.1 µM) | 4 µg/mL (≈ 11.1 µM) | 16 µg/mL (≈ 44.3 µM) | 8 µg/mL (≈ 22.1 µM) | > 32 µg/mL | 16 µg/mL (≈ 44.3 µM) | 32 µg/mL (≈ 88.6 µM) | 32 µg/mL (≈ 88.6 µM) | 2 µg/mL (≈ 5.53 µM) | 16 µg/mL (≈ 44.3 µM) | > 32 µg/mL | 4 µg/mL (≈ 11.1 µM) | 8 µg/mL (≈ 22.1 µM) | 4 µg/mL (≈ 11.1 µM) | 16 µg/mL (≈ 44.3 µM) | 1 µg/mL (≈ 2.77 µM) | 2 µg/mL (≈ 5.53 µM) | MIC [21]: 8 µg/mL (≈ 22.1 µM); MIC [22]: 4 µg/mL (≈ 11.1 µM) |
| C[C@@H](O)[C@H]1C(=O)N2C(C(=O)O)=C(S[C@@H]3CN[C@H](C(=O)N(C)C)C3)[C@H](C)[C@H]12 [meropenem] | 16 µg/mL (≈ 41.7 µM) | 0.25 µg/mL (≈ 0.652 µM) | 4 µg/mL (≈ 10.4 µM) | 16 µg/mL (≈ 41.7 µM) | 4 µg/mL (≈ 10.4 µM) | 32 µg/mL (≈ 83.4 µM) | 8 µg/mL (≈ 20.9 µM) | 8 µg/mL (≈ 20.9 µM) | 8 µg/mL (≈ 20.9 µM) | 16 µg/mL (≈ 41.7 µM) | 8 µg/mL (≈ 20.9 µM) | 4 µg/mL (≈ 10.4 µM) | 16 µg/mL (≈ 41.7 µM) | 16 µg/mL (≈ 41.7 µM) | 8 µg/mL (≈ 20.9 µM) | 16 µg/mL (≈ 41.7 µM) | 8 µg/mL (≈ 20.9 µM) | > 32 µg/mL | 1 µg/mL (≈ 2.61 µM) | 4 µg/mL (≈ 10.4 µM) | MIC [21]: 2 µg/mL (≈ 5.22 µM); MIC [22]: 4 µg/mL (≈ 10.4 µM) |
